According to PubChem BioAssay (NCI):
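Briefly, cells in 96-well plates were exposed to five compound concentrations for 48 h, and endpoints were estimated by linear interpolation. GI50 is the concentration that inhibits growth by half. TGI is the concentration that stops growth completely.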

Key:
Test in all cases: DTP human tumour cell line panel, 48 h
COLO 205 colon = test system: COLO 205 colon
LOX IMVI melanoma = test system: LOX IMVI melanoma
DU-145 prostate = test system: DU-145 prostate
SF-539 CNS = test system: SF-539 CNS
SK-MEL-2 melanoma = test system: SK-MEL-2 melanoma
UACC-257 melanoma = test system: UACC-257 melanoma
M14 melanoma = test system: M14 melanoma
MCF7 breast = test system: MCF7 breast
A498 renal = test system: A498 renal
RXF 393 renal = test system: RXF 393 renal
UO-31 renal = test system: UO-31 renal
SK-MEL-5 melanoma = test system: SK-MEL-5 melanoma
HS 578T breast = test system: HS 578T breast
NCI-H23 lung = test system: NCI-H23 lung
OVCAR-5 ovarian = test system: OVCAR-5 ovarian

Structure (SMILES)	TGI (COLO 205 colon)	TGI (LOX IMVI melanoma)	GI50 (DU-145 prostate)	TGI (DU-145 prostate)	TGI (SF-539 CNS)	GI50 (SK-MEL-2 melanoma)	TGI (SK-MEL-2 melanoma)	TGI (UACC-257 melanoma)	TGI (M14 melanoma)	TGI (MCF7 breast)	GI50 (A498 renal)	TGI (A498 renal)	GI50 (RXF 393 renal)	TGI (RXF 393 renal)	TGI (UO-31 renal)	TGI (SK-MEL-5 melanoma)	GI50 (HS 578T breast)	TGI (HS 578T breast)	TGI (NCI-H23 lung)	TGI (OVCAR-5 ovarian)
FC(F)(F)c1nc2ccc(SSc3ccc4nc(C(F)(F)F)[nH]c4c3)cc2[nH]1	> 100 µM	> 100 µM	> 100 µM	> 100 µM	> 100 µM	> 100 µM	> 100 µM	> 100 µM	> 100 µM	> 100 µM	> 100 µM	> 100 µM	> 100 µM	> 100 µM	> 100 µM	> 100 µM	> 100 µM	> 100 µM	> 100 µM	> 100 µM
CC1CC(C)[C@H](O)C([C@H](O)CC2CC(=O)N(C)C(=O)C2)C1 (stereo not given in full)	> 100 µM	> 100 µM	–	> 100 µM	> 100 µM	–	> 100 µM	> 100 µM	> 100 µM	> 100 µM	–	> 100 µM	–	> 100 µM	> 100 µM	> 100 µM	–	> 100 µM	> 100 µM	> 100 µM
Nc1nc(Cl)c(N)c(NCC2(CO)CC(Cc3ccccc3)C2)n1 (stereo not given)	> 100 µM	> 100 µM	–	> 100 µM	> 100 µM	–	> 100 µM	> 86.3 µM	> 100 µM	> 69.2 µM	–	> 78.5 µM	–	> 100 µM	> 100 µM	18.5 µM	–	> 100 µM	> 100 µM	> 100 µM
C[n+]1noc(/N=N\[O-])c1-c1cc(-c2c(/N=N\[O-])on[n+]2C)cc(-c2c(/N=N/[O-])on[n+]2C)c1	> 100 µM	> 100 µM	–	> 100 µM	> 100 µM	–	> 100 µM	> 100 µM	> 100 µM	> 100 µM	–	> 100 µM	–	> 100 µM	> 100 µM	> 100 µM	–	> 100 µM	> 100 µM	> 100 µM
CCC(C)C(C(=O)N/N=C1/SCC(=O)N1C)C(=O)N/N=C1/SCC(=O)N1C (stereo not given)	> 100 µM	> 100 µM	–	> 100 µM	> 100 µM	–	> 100 µM	> 100 µM	> 100 µM	> 100 µM	–	> 100 µM	–	> 100 µM	> 100 µM	> 100 µM	–	> 100 µM	> 100 µM	> 100 µM
COc1cc(O)c2c(=O)c(OC)c(-c3ccc4c(c3)OCO4)oc2c1	> 100 µM	> 100 µM	–	> 100 µM	> 74.9 µM	–	> 100 µM	> 100 µM	> 100 µM	> 100 µM	–	> 89.3 µM	–	> 100 µM	> 100 µM	98.1 µM	–	> 100 µM	> 100 µM	> 100 µM
CC1CC(=O)Nc2cc(Cl)ccc2N1C(=O)C1CC1 (stereo not given)	> 100 µM	> 100 µM	–	> 100 µM	> 100 µM	–	> 100 µM	> 100 µM	> 100 µM	> 100 µM	–	> 100 µM	–	> 100 µM	> 100 µM	> 100 µM	–	> 100 µM	> 100 µM	> 100 µM
CC(=O)NC1=C(C)C(=O)c2c(nc3n2CCC3OC(=O)c2ccccc2)C1=N (stereo not given)	3.27 µM	1.33 µM	–	3.44 µM	2.56 µM	–	4.18 µM	3.47 µM	2.76 µM	2.53 µM	–	3.66 µM	–	2.9 µM	4.34 µM	2.83 µM	–	5.4 µM	3.83 µM	7.36 µM
